Experimental data from patent US8476449B2, “Radioactive iodine labeled organic compound or salt thereof” (Nihon Medi-Physics Co., Ltd., priority 2010, dated 2013).
Read-outs that look alike come from different tables or passages of the source.

Columns and labels:
Aβ42 aggregate = target: T1, Aβ42 aggregate (Homo sapiens, UniProt P05067); test: Evaluation experiment of binding to amyloid β (filter radioactivity); conditions: Aβ42 aggregate 30 nmol/L, incubation 3 hours
T1 construct: Aβ (1-42) peptide; purchased Peptide Institute, Inc
Method: 0.5 mg of Aβ (1-42) peptide (purchased from Peptide Institute, Inc.) was dissolved in 2 mL of a PBS buffer containing 1 mmol/L of EDTA and incubated at 37° C. for 42 hours, thus preparing an Aβ42 aggregate. A glass tube was charged with a 10 vol % ethanol aqueous solution (900 μL), Aβ42 aggregate (50 μL, final concentration 30 nmol/L), and radioactive iodine-labeled compound 1, radioactive iodine-labeled compound 2, or radioactive iodine-labeled compound 3 (each 50 μL, 0.018-0.097 μCi), and incubation was carried out for 3 hours. B/F separation was carried out using a cell harvester (Brandel, M-24), and the radioactivity on the filter was measured in a γ counter. The proportion (%) of the radioactivity count on the filter relative to the radioactivity count of each sample used was determined, and binding of each compound to the Aβ42 aggregate was evaluated.
As a control, 4-dimethylamino-4′-iodochalcone (hereinafter, called a chalcone derivative) was prepared in accordance with a method described in the literature (Ono et al., Bioorg Med Chem, 15, 6802-6809, 2007), and the same experiment was carried out (radioactivity count in sample: […]-0.37 kBq (0.023-0.01 μCi)).

tau protein aggregate = tau protein aggregate (Homo sapiens, UniProt P10636); conditions: tau 0.37 μmol/L, incubated 1 to 1.5 hours, PD-10 column
[1] = mice
[2] = 2 minutes after tail vein administration
[3] = 10 minutes after tail vein administration
[4] = 30 minutes after tail vein administration
[5] = 60 minutes after tail vein administration

T1 sequence (P05067 672-713 limits assumed): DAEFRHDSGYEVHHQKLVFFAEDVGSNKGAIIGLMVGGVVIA
tau protein aggregate, sequence (P10636 1-441 isoform P10636-8): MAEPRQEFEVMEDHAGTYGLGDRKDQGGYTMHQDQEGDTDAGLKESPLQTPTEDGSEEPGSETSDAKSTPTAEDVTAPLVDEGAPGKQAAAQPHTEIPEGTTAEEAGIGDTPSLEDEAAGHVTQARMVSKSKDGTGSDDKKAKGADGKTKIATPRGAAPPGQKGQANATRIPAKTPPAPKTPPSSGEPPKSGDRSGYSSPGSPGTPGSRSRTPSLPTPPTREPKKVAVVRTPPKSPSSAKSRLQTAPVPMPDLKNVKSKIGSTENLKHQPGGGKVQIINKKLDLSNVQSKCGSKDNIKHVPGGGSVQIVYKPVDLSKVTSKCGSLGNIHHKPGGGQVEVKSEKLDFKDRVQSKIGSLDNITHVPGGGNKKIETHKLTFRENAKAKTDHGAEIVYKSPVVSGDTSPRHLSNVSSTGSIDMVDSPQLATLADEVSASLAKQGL

For CCOC(=O)CN1C(=O)/C(=C/c2ccc(-c3cccc([125I])c3)o2)SC1=S [Radioactive iodine-labeled compound 1, (Z)-Ethyl-2-(5-((5-(3-(^125I)iodophenyl)furan-2-yl)methylene)-4-oxo-2-thioxothiazolidin-3-yl) acetate], the “Binding to the Aβ42 aggregate (proportion of radioactivity count on the filter)” value (shortened to “Binding to the Aβ42 aggregate”) (Aβ42 aggregate) was “significantly lower”, the “Radioactivity of eluted fraction: aggregated tau vs non aggregated tau vs buffer” value (tau protein aggregate) was “specifically binding to a tau protein aggregate” and the “Amount of radioactivity in organ: Blood” value [1, 2] was 6.70 ± 0.53 % ID/g. The “Amount of radioactivity in organ: Blood” value [1, 3] was 3.58 ± 0.37 % ID/g, the “Amount of radioactivity in organ: Blood” value [1, 4] was 2.27 ± 0.44 % ID/g and the “Amount of radioactivity in organ: Blood” value [1, 5] was 1.59 ± 0.14 % ID/g. The “Amount of radioactivity in organ: Brain” value [1, 2] was 0.23 ± 0.02 % ID/g, the “Amount of radioactivity in organ: Brain” value [1, 3] was 0.16 ± 0.01 % ID/g and the “Amount of radioactivity in organ: Brain” value [1, 4] was 0.15 ± 0.03 % ID/g. For the same compound, the “Amount of radioactivity in organ: Brain” value [1, 5] was 0.11 ± 0.02 % ID/g, the “Amount of radioactivity in organ: Heart” value [1, 2] was 9.41 ± 0.49 % ID/g and the “Amount of radioactivity in organ: Heart” value [1, 3] was 5.05 ± 0.39 % ID/g. For the same compound, the “Amount of radioactivity in organ: Heart” value [1, 4] was 2.38 ± 0.38 % ID/g, the “Amount of radioactivity in organ: Heart” value [1, 5] was 1.39 ± 0.19 % ID/g and the “Amount of radioactivity in organ: Intestine” value (shortened to “Amount … Intestine”) [1, 2] was 1.77 ± 0.33 % ID/g. For the same compound, the “Amount … Intestine” value [1, 3] was 7.97 ± 1.24 % ID/g, the “Amount … Intestine” value [1, 4] was 15.1 ± 1.82 % ID/g and the “Amount … Intestine” value [1, 5] was 21.0 ± 2.73 % ID/g. For the same compound, the “Amount of radioactivity in organ: Kidney” value [1, 2] was 8.50 ± 0.83 % ID/g, the “Amount of radioactivity in organ: Kidney” value [1, 3] was 7.64 ± 0.69 % ID/g and the “Amount of radioactivity in organ: Kidney” value [1, 4] was 6.42 ± 1.17 % ID/g. The “Amount of radioactivity in organ: Kidney” value [1, 5] was 3.91 ± 0.18 % ID/g, the “Amount of radioactivity in organ: Liver” value [1, 2] was 43.1 ± 2.07 % ID/g and the “Amount of radioactivity in organ: Liver” value [1, 3] was 29.5 ± 2.17 % ID/g. For the same compound, the “Amount of radioactivity in organ: Liver” value [1, 4] was 14.7 ± 2.27 % ID/g, the “Amount of radioactivity in organ: Liver” value [1, 5] was 11.3 ± 0.87 % ID/g and the “Amount of radioactivity in organ: Lung” value [1, 2] was 13.6 ± 1.00 % ID/g. The “Amount of radioactivity in organ: Lung” value [1, 3] was 4.44 ± 0.52 % ID/g, the “Amount of radioactivity in organ: Lung” value [1, 4] was 2.31 ± 0.46 % ID/g and the “Amount of radioactivity in organ: Lung” value [1, 5] was 1.56 ± 0.22 % ID/g. For the same compound, the “Amount of radioactivity in organ: Pancreas” value (“Amount … Pancreas” below) [1, 2] was 1.74 ± 0.19 % ID/g, the “Amount … Pancreas” value [1, 3] was 1.75 ± 0.18 % ID/g and the “Amount … Pancreas” value [1, 4] was 1.16 ± 0.17 % ID/g. For the same compound, the “Amount … Pancreas” value [1, 5] was 0.73 ± 0.08 % ID/g, the “Amount of radioactivity in organ: Spleen” value [1, 2] was 6.70 ± 0.54 % ID/g and the “Amount of radioactivity in organ: Spleen” value [1, 3] was 4.11 ± 0.80 % ID/g. For the same compound, the “Amount of radioactivity in organ: Spleen” value [1, 4] was 2.66 ± 0.84 % ID/g, the “Amount of radioactivity in organ: Spleen” value [1, 5] was 1.94 ± 0.40 % ID/g and the “Amount of radioactivity in organ: Stomach” value (“Amount … Stomach” for short) [1, 2] was 0.75 ± 0.17 % ID/g. The “Amount … Stomach” value [1, 3] was 1.53 ± 0.44 % ID/g, the “Amount … Stomach” value [1, 4] was 3.65 ± 0.78 % ID/g and the “Amount … Stomach” value [1, 5] was 4.51 ± 0.38 % ID/g.
With CCOC(=O)CN1C(=O)/C(=C/c2ccc(-c3cccc([125I])c3)o2)NC1=S [Radioactive iodine-labeled compound 2, (Z)-Ethyl-2-(4-((5-(3-(^125I)iodophenyl)furan-2-yl)methylene)-5-oxo-2-thioxoimidazolidin-l-yl) acetate] the “Binding to the Aβ42 aggregate” value (Aβ42 aggregate) was “significantly lower”, the “Radioactivity of eluted fraction: aggregated tau vs non aggregated tau vs buffer” value (tau protein aggregate) was “specifically binding to a tau protein aggregate” and the “Amount of radioactivity in organ: Blood” value [1, 2] was 9.49 ± 0.82 % ID/g. The “Amount of radioactivity in organ: Blood” value [1, 3] was 2.38 ± 0.88 % ID/g, the “Amount of radioactivity in organ: Blood” value [1, 4] was 1.79 ± 0.11 % ID/g and the “Amount of radioactivity in organ: Blood” value [1, 5] was 1.50 ± 0.10 % ID/g. For the same compound, the “Amount of radioactivity in organ: Brain” value [1, 2] was 0.57 ± 0.07 % ID/g, the “Amount of radioactivity in organ: Brain” value [1, 3] was 0.32 ± 0.02 % ID/g and the “Amount of radioactivity in organ: Brain” value [1, 4] was 0.18 ± 0.02 % ID/g. The “Amount of radioactivity in organ: Brain” value [1, 5] was 0.10 ± 0.03 % ID/g, the “Amount of radioactivity in organ: Heart” value [1, 2] was 7.02 ± 1.23 % ID/g and the “Amount of radioactivity in organ: Heart” value [1, 3] was 2.05 ± 0.29 % ID/g. The “Amount of radioactivity in organ: Heart” value [1, 4] was 1.19 ± 0.39 % ID/g, the “Amount of radioactivity in organ: Heart” value [1, 5] was 1.44 ± 0.39 % ID/g and the “Amount … Intestine” value [1, 2] was 1.85 ± 0.26 % ID/g. For the same compound, the “Amount … Intestine” value [1, 3] was 7.88 ± 1.46 % ID/g, the “Amount … Intestine” value [1, 4] was 17.7 ± 2.22 % ID/g and the “Amount … Intestine” value [1, 5] was 23.4 ± 5.37 % ID/g. The “Amount of radioactivity in organ: Kidney” value [1, 2] was 9.21 ± 0.68 % ID/g, the “Amount of radioactivity in organ: Kidney” value [1, 3] was 9.11 ± 1.15 % ID/g and the “Amount of radioactivity in organ: Kidney” value [1, 4] was 3.86 ± 0.85 % ID/g. For the same compound, the “Amount of radioactivity in organ: Kidney” value [1, 5] was 2.68 ± 0.75 % ID/g, the “Amount of radioactivity in organ: Liver” value [1, 2] was 32.2 ± 1.67 % ID/g and the “Amount of radioactivity in organ: Liver” value [1, 3] was 32.1 ± 2.09 % ID/g. The “Amount of radioactivity in organ: Liver” value [1, 4] was 22.6 ± 3.42 % ID/g, the “Amount of radioactivity in organ: Liver” value [1, 5] was 20.2 ± 1.93 % ID/g and the “Amount of radioactivity in organ: Lung” value [1, 2] was 10.8 ± 1.28 % ID/g. The “Amount of radioactivity in organ: Lung” value [1, 3] was 3.89 ± 0.32 % ID/g, the “Amount of radioactivity in organ: Lung” value [1, 4] was 2.09 ± 0.43 % ID/g and the “Amount of radioactivity in organ: Lung” value [1, 5] was 1.70 ± 0.45 % ID/g. For the same compound, the “Amount … Pancreas” value [1, 2] was 1.79 ± 0.27 % ID/g, the “Amount … Pancreas” value [1, 3] was 0.98 ± 0.08 % ID/g and the “Amount … Pancreas” value [1, 4] was 0.56 ± 0.10 % ID/g. For the same compound, the “Amount … Pancreas” value [1, 5] was 0.45 ± 0.08 % ID/g, the “Amount of radioactivity in organ: Spleen” value [1, 2] was 9.16 ± 2.04 % ID/g and the “Amount of radioactivity in organ: Spleen” value [1, 3] was 12.2 ± 2.28 % ID/g. For the same compound, the “Amount of radioactivity in organ: Spleen” value [1, 4] was 13.6 ± 4.29 % ID/g, the “Amount of radioactivity in organ: Spleen” value [1, 5] was 10.0 ± 2.49 % ID/g and the “Amount … Stomach” value [1, 2] was 0.93 ± 0.36 % ID/g. The “Amount … Stomach” value [1, 3] was 3.39 ± 3.03 % ID/g, the “Amount … Stomach” value [1, 4] was 3.39 ± 2.98 % ID/g and the “Amount … Stomach” value [1, 5] was 5.32 ± 2.68 % ID/g.
For CN(C)c1ccc(/C=C/C(=O)c2ccc(I)cc2)cc1 [chalcone derivative, 4-dimethylamino-4′-iodochalcone, reference compound], the “Binding to the Aβ42 aggregate” value (Aβ42 aggregate) was “exhibited binding to the Aβ42 aggregate”.
